The IC50 is the midpoint of a concentration-inhibition curve. A high value points to lower potency.

Format in all cases: cell-based
One test deals with MelJuSo cells. Nature of the test: Cell viability (CellTiter-Glo ATP content) in MelJuSo cells. Conditions: Homo sapiens, MEL-JUSO, 72 hours treatment, cell survival by CellTiter-Glo, 2% fetal bovine serum. Here is the method:
(§1) Logarithmically growing A549, LOX and MelJuSo cells (ATCC) were plated in antibiotic-free RPMI medium (Coming) supplemented with 2% fetal bovine serum (Gemini Bio-products) at a density of 5,000 cells per well in clear-bottom 96-well plates. The next day cells were treated (triplicates) with increasing doses of a compound of the present disclosure (dissolved in DMSO) and DMSO vehicle controls (final DMSO concentration of 0.5%) for 72 hours and subsequently assessed for cell viability by measuring ATP content with CellTiter-Glo Luminescent Cell Viability Assay (Promega). Signal intensity was measured on a Glomax™ 96 Microplate Luminometer (Promega) and percent cell survival was calculated based on the reading of vehicle control cells set as 100%.
(In general: In ATP-based viability assays light output follows the ATP content of the culture.)

The subject of a further test is LOX cells. Nature of the test: Cell viability (CellTiter-Glo ATP content) in LOX cells. Conditions: LOX, 72 h, 72 hours treatment, cell survival by CellTiter-Glo, 2% fetal bovine serum. Here is the method: as §1
Another test has as its system A549 cells. Put plainly: Cell viability (CellTiter-Glo ATP content) in A549 cells. Conditions: Homo sapiens, A549, 72 h, 72 hours treatment, cell survival by CellTiter-Glo, 2% fetal bovine serum. The method, then:
as §1

The structures appear in SMILES notation.

As for `CCCCC1C(c2ccc(F)cc2)=NN(c2ccccc2)C1(C)C(=O)NCCCC(C)(C)CO` (centres unmarked) [Compound 1, 4-butyl-3-(4-fluorophenyl)-N-(5-hydroxy-4,4-dimethylpentyl)-5-methyl-1-phenyl-4,5-dihydro-1H-pyrazole-5-carboxamide], the IC50 was in the range of 0.25 to 0.5 µM with MelJuSo cells, 0.5 to 1 µM in the test on LOX cells and 0.5 to 1 µM with A549 cells.

With `CCCCC1C(c2ccc(F)cc2)=NN(c2ccccc2)C1(C)C(=O)NCCCCC(C)(C)O` (centres unmarked) [Compound 2, 4-butyl-3-(4-fluorophenyl)-N-(5-hydroxy-5-methylhexyl)-5-methyl-1-phenyl-4,5-dihydro-1H-pyrazole-5-carboxamide], the IC50 was 0.5 to 1 µM in the test on MelJuSo cells, 1 to 2 µM in the test on LOX cells and 1 to 2 µM in the test with A549 cells.

Turning to `CCCCC1C(c2ccc(F)cc2)=NN(c2ccc(F)cc2F)C1(C)C(=O)NCCCC(C)(C)CO` (centres unmarked) [Compound 3, 4-butyl-1-(2,4-difluorophenyl)-3-(4-fluorophenyl)-N-(5-hydroxy-4,4-dimethylpentyl)-5-methyl-4,5-dihydro-1H-pyrazole-5-carboxamide], the IC50 in the test with MelJuSo cells, with LOX cells and in the test with A549 cells was 0.5 to 1 µM in each case.

With `CCCCC1C(c2ccc(F)cc2)=NN(c2ccc(F)cc2F)C1(C)C(=O)NCCCCC(C)(C)O` (centres unmarked) [Compound 4, 4-butyl-1-(2,4-difluorophenyl)-3-(4-fluorophenyl)-N-(5-hydroxy-5-methylhexyl)-5-methyl-4,5-dihydro-1H-pyrazole-5-carboxamide], the IC50 in the test on MelJuSo cells, in the test with LOX cells and in the test with A549 cells was 0.5 to 1 µM each time.

Take `CCCCC1C(c2ccc(F)cc2)=NN(c2ccc(F)cc2F)C1(C)C(=O)NCCCOC` (centres unmarked) [Compound 5, 4-butyl-1-(2,4-difluorophenyl)-3-(4-fluorophenyl)-N-(3-methoxypropyl)-5-methyl-4,5-dihydro-1H-pyrazole-5-carboxamide]: the IC50 fell in the range of 0.5 to 1 µM in the test on MelJuSo cells, 1 to 2 µM in the test on LOX cells and 1 to 2 µM in the test on A549 cells.

`CCCCC1C(c2ccc(F)cc2)=NN(c2ccc(F)cc2F)C1(C)C(=O)NCCOC` (centres unmarked) [Compound 6, 4-butyl-1-(2,4-difluorophenyl)-3-(4-fluorophenyl)-N-(2-methoxyethyl)-5-methyl-4,5-dihydro-1H-pyrazole-5-carboxamide]: the IC50 with MelJuSo cells, in the test with LOX cells and in the test with A549 cells was 0.5 to 1 µM each time.

For `CCCCC1C(c2ccc(F)cc2)=NN(c2cccc(F)c2)C1(C)C(=O)NCCCCC(C)(C)O` (centres unmarked) [Compound 7, 4-butyl-1-(3-fluorophenyl)-3-(4-fluorophenyl)-N-(5-hydroxy-5-methylhexyl)-5-methyl-4,5-dihydro-1H-pyrazole-5-carboxamide], the IC50 with MelJuSo cells was 0.5 to 1 µM; in the test on LOX cells it was 1 to 2 µM; with A549 cells it was above 2 µM.

Consider `CCCCC1C(c2ccc(F)cc2)=NN(c2cccc(F)c2)C1(C)C(=O)NCCCOC` (centres unmarked) [Compound 8, 4-butyl-1-(3-fluorophenyl)-3-(4-fluorophenyl)-N-(3-methoxypropyl)-5-methyl-4,5-dihydro-1H-pyrazole-5-carboxamide], for which the IC50 was 1 to 2 µM in the test on MelJuSo cells, above 2 µM with LOX cells and above 2 µM in the test with A549 cells.

Take `CCCCC1C(c2ccc(F)cc2)=NN(c2cc(F)ccc2F)C1(C)C(=O)NCCCCC(C)(C)O` (centres unmarked) [Compound 9, 4-butyl-1-(2,5-difluorophenyl)-3-(4-fluorophenyl)-N-(5-hydroxy-5-methylhexyl)-5-methyl-4,5-dihydro-1H-pyrazole-5-carboxamide]: the values for the IC50 with MelJuSo cells, with LOX cells and with A549 cells were 0.5 to 1 µM, 0.5 to 1 µM and 1 to 2 µM, respectively.

`CCCCC1C(c2ccc(F)c(F)c2)=NN(c2ccccc2)C1(C)C(=O)NCCCCC(C)(C)O` (centres unmarked) [Compound 10, 4-butyl-3-(3,4-difluorophenyl)-N-(5-hydroxy-5-methylhexyl)-5-methyl-1-phenyl-4,5-dihydro-1H-pyrazole-5-carboxamide]: the IC50 with MelJuSo cells is 0.5 to 1 µM; with LOX cells, 1 to 2 µM; with A549 cells, above 2 µM.

Regarding `CCCCC1C(c2ccc(F)cc2)=NN(c2ccc(F)c(Cl)c2)C1(C)C(=O)NCCCCC(C)(C)O` (centres unmarked) [Compound 11, 4-butyl-1-(3-chloro-4-fluorophenyl)-3-(4-fluorophenyl)-N-(5-hydroxy-5-methylhexyl)-5-methyl-4,5-dihydro-1H-pyrazole-5-carboxamide], the IC50 in the test with MelJuSo cells was 1 to 2 µM; in the test with LOX cells it was above 2 µM; with A549 cells, above 2 µM.

For `CCCCC1C(c2ccc(F)cc2)=NN(c2ccc(Cl)cc2)C1(C)C(=O)NCCCC(C)(C)CO` (centres unmarked) [Compound 12, 4-butyl-1-(4-chlorophenyl)-3-(4-fluorophenyl)-N-(5-hydroxy-4,4-dimethylpentyl)-5-methyl-4,5-dihydro-1H-pyrazole-5-carboxamide], the IC50 with MelJuSo cells is 1 to 2 µM; with LOX cells, 1 to 2 µM; in the test on A549 cells, above 2 µM.

On to `CCCCC1C(c2ccc(F)cc2)=NN(c2ccc(Cl)cc2)C1(C)C(=O)NCCCOC` (centres unmarked) [Compound 13, 4-butyl-1-(4-chlorophenyl)-3-(4-fluorophenyl)-N-(3-methoxypropyl)-5-methyl-4,5-dihydro-1H-pyrazole-5-carboxamide], for which the IC50 with MelJuSo cells, in the test on LOX cells and in the test on A549 cells was above 2 µM in each case.

As for `CCCCC1C(c2ccc(F)cc2)=NN(c2ccc(F)cc2)C1(C)C(=O)NCCCOC` (centres unmarked) [Compound 14, 4-butyl-1,3-bis(4-fluorophenyl)-N-(3-methoxypropyl)-5-methyl-4,5-dihydro-1H-pyrazole-5-carboxamide], the figures for the IC50 in the test on MelJuSo cells, in the test with LOX cells and in the test with A549 cells were 1 to 2 µM, 1 to 2 µM and above 2 µM, respectively.

As to `CCCCC1C(c2ccc(F)cc2)=NN(c2ccc(C)cc2)C1(C)C(=O)NCCCC(C)(C)CO` (centres unmarked) [Compound 15, 4-butyl-3-(4-fluorophenyl)-N-(5-hydroxy-4,4-dimethylpentyl)-5-methyl-1-p-tolyl-4,5-dihydro-1H-pyrazole-5-carboxamide], the IC50 with MelJuSo cells was 0.25 to 0.5 µM; in the test on LOX cells, 0.25 to 0.5 µM; in the test on A549 cells, 1 to 2 µM.

In the case of `CCCCC1C(c2ccc(F)cc2)=NN(c2ccc(C)cc2)C1(C)C(=O)NCCCOC` (centres unmarked) [Compound 16, 4-butyl-3-(4-fluorophenyl)-N-(3-methoxypropyl)-5-methyl-1-p-tolyl-4,5-dihydro-1H-pyrazole-5-carboxamide], the values for the IC50 in the test on MelJuSo cells, in the test with LOX cells and in the test with A549 cells were 0.5 to 1 µM, above 2 µM and above 2 µM, respectively.

For the compound `CCCCC1C(c2ccc(F)cc2)=NN(c2cccc(Cl)c2)C1(C)C(=O)NCCCC(C)(C)CO` (centres unmarked) [Compound 17, 4-butyl-1-(3-chlorophenyl)-3-(4-fluorophenyl)-N-(5-hydroxy-4,4-dimethylpentyl)-5-methyl-4,5-dihydro-1H-pyrazole-5-carboxamide], the IC50 in the test on MelJuSo cells was in the range of 0.25 to 0.5 µM; in the test with LOX cells, 1 to 2 µM; in the test on A549 cells it was 1 to 2 µM.

With `CCCCC1C(c2ccc(F)cc2)=NN(c2ccc(F)c(OC)c2)C1(C)C(=O)NCCCC(C)(C)CO` (centres unmarked) [Compound 18, 4-butyl-1-(4-fluoro-3-methoxyphenyl)-3-(4-fluorophenyl)-N-(5-hydroxy-4,4-dimethylpentyl)-5-methyl-4,5-dihydro-1H-pyrazole-5-carboxamide], the IC50 in the test with MelJuSo cells, in the test with LOX cells and in the test with A549 cells was above 2 µM in each case.

In the case of `CCCCC1C(c2ccc(F)cc2)=NN(c2ccc(F)c(OC)c2)C1(C)C(=O)NCCCOC` (centres unmarked) [Compound 19, 4-butyl-1-(4-fluoro-3-methoxyphenyl)-3-(4-fluorophenyl)-N-(3-methoxypropyl)-5-methyl-4,5-dihydro-1H-pyrazole-5-carboxamide], the IC50 in the test with MelJuSo cells, with LOX cells and in the test with A549 cells was above 2 µM in each case.

With `Cn1cccc1C1C(c2ccc(F)cc2)=NN(c2ccc(F)cc2F)C1(C)C(=O)NCCCC(C)(C)CO` (centres unmarked) [Compound 93, 1-(2,4-difluorophenyl)-3-(4-fluorophenyl)-N-(5-hydroxy-4,4-dimethylpentyl)-5-methyl-4-(1-methyl-1H-pyrrol-2-yl)-4,5-dihydro-1H-pyrazole-5-carboxamide], the concentration for half-maximal inhibition (IC50) with MelJuSo cells and in the test on A549 cells was above 2 µM in each case.

As to `COCCNC(=O)C1(C)C(c2cccn2C)C(c2ccc(F)cc2)=NN1c1ccc(F)cc1F` (centres unmarked) [Compound 94, 1-(2,4-difluorophenyl)-3-(4-fluorophenyl)-N-(2-methoxyethyl)-5-methyl-4-(1-methyl-1H-pyrrol-2-yl)-4,5-dihydro-1H-pyrazole-5-carboxamide], the IC50 with MelJuSo cells and in the test on A549 cells was above 2 µM each time.

For the compound `Cn1cc(C2C(c3ccc(F)cc3)=NN(c3ccc(F)cc3F)C2(C)C(=O)NCCCC(C)(C)CO)cn1` (centres unmarked) [Compound 95, 1-(2,4-difluorophenyl)-3-(4-fluorophenyl)-N-(5-hydroxy-4,4-dimethylpentyl)-5-methyl-4-(1-methyl-1H-pyrazol-4-yl)-4,5-dihydro-1H-pyrazole-5-carboxamide], the IC50 with MelJuSo cells and with A549 cells was above 2 µM in each case.

As for `COCCNC(=O)C1(C)C(c2cnn(C)c2)C(c2ccc(F)cc2)=NN1c1ccc(F)cc1F` (centres unmarked) [Compound 96, 1-(2,4-difluorophenyl)-3-(4-fluorophenyl)-N-(2-methoxyethyl)-5-methyl-4-(1-methyl-1H-pyrazol-4-yl)-4,5-dihydro-1H-pyrazole-5-carboxamide], the IC50 in the test with MelJuSo cells and in the test with A549 cells was above 2 µM in each case.

The record behind these values is US12227482B2, “Compounds and compositions for the treatment of cancer” (The Regents of the University of California, priority 2016, dated 2025).
